From PubChem BioAssay AID330 (DTP/NCI, 2004)
Values joined by “and” are separate entries in the source; they are usually repeats but may differ in a detail not shown here. Equal values may be shown once. Toxic doses and inconclusive results are not listed. Rule for the calls: active = survival T/C of 150% or more; inactive = T/C below 125% in these data.

Tested on: P388 leukemia ip, CD2F1 mice, survival T/C
Assay: NCI In Vivo Anticancer Drug Screen. Data for tumor model P388 Leukemia (intraperitoneal) in CD2F1 (CDF1) mice
Details: endpoint: median survival time, higher = longer survival
How it was run: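 Mice carrying the transplanted tumor received test compound or vehicle. Survival was recorded in each group, and the value is the treated-group measurement divided by that of the vehicle-treated control group.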

[1] = dose: 100.0 mg/kg/injection, schedule: Q04DX003 (ip), vehicle: saline
[2] = dose: 200.0 mg/kg/injection, schedule: Q04DX003 (ip), vehicle: saline
[3] = dose: 400.0 mg/kg/injection, schedule: Q04DX003 (ip), vehicle: saline
[4] = dose: 6.25 mg/kg/injection, schedule: Q01DX009 (ip), vehicle: Klucel (hydroxypropylcellulose) (HPC)
[5] = dose: 12.5 mg/kg/injection, schedule: Q01DX009 (ip), vehicle: Klucel (hydroxypropylcellulose) (HPC)
[6] = dose: 60.0 mg/kg/injection, schedule: Q01DX005 (ip), vehicle: saline with Tween-80
[7] = dose: 120.0 mg/kg/injection, schedule: Q01DX005 (ip), vehicle: saline with Tween-80
[8] = dose: 240.0 mg/kg/injection, schedule: Q01DX005 (ip), vehicle: saline with Tween-80
[9] = dose: 100.0 mg/kg/injection, schedule: Q04DX003 (ip), vehicle: saline with Tween-80
[10] = dose: 200.0 mg/kg/injection, schedule: Q04DX003 (ip), vehicle: saline with Tween-80
[11] = dose: 400.0 mg/kg/injection, schedule: Q04DX003 (ip), vehicle: saline with Tween-80
[12] = dose: 50.0 mg/kg/injection, schedule: Q01DX005 (ip), vehicle: Klucel (hydroxypropylcellulose) (HPC)
[13] = dose: 100.0 mg/kg/injection, schedule: Q01DX005 (ip), vehicle: Klucel (hydroxypropylcellulose) (HPC)
[14] = dose: 200.0 mg/kg/injection, schedule: Q01DX005 (ip), vehicle: Klucel (hydroxypropylcellulose) (HPC)
[15] = dose: 25.0 mg/kg/injection, schedule: Q01DX009 (ip), vehicle: saline
[16] = dose: 50.0 mg/kg/injection, schedule: Q01DX009 (ip), vehicle: Klucel (hydroxypropylcellulose) (HPC)
[17] = dose: 100.0 mg/kg/injection, schedule: Q01DX009 (ip), vehicle: Klucel (hydroxypropylcellulose) (HPC)

Measured: T/C

O=S(=O)(O)C(O)c1cccc(Cl)c1 (stereo not drawn)
inactive: [1] 100 % of control | [2] 110 % of control | [3] 103 % of control

CCOc1c(N=Nc2ccc(O)cc2)c(C)nn1C(=S)S
inactive: dose: 60.0 mg/kg/injection, schedule: Q01DX005 (ip), vehicle: Klucel + Tween-80 115 % of control | dose: 120.0 mg/kg/injection, schedule: Q01DX005 (ip), vehicle: Klucel + Tween-80 115 % of control | dose: 240.0 mg/kg/injection, schedule: Q01DX005 (ip), vehicle: Klucel + Tween-80 118 % of control

N#CN=[N+]([O-])c1cccc(Cl)c1
inactive: dose: 3.12 mg/kg/injection, schedule: Q01DX009 (ip), vehicle: Klucel (hydroxypropylcellulose) (HPC) 101 % of control | [4] 108 % of control | dose: 6.25 mg/kg/injection, schedule: Q04DX003 (ip), vehicle: Klucel (hydroxypropylcellulose) (HPC) 101 % of control | [5] 98 % of control | dose: 12.5 mg/kg/injection, schedule: Q04DX003 (ip), vehicle: Klucel (hydroxypropylcellulose) (HPC) 104 % of control | dose: 25.0 mg/kg/injection, schedule: Q04DX003 (ip), vehicle: Klucel (hydroxypropylcellulose) (HPC) 91 % of control

Cc1cc[n+](C2=C(Nc3ccc(Cl)cc3Cl)C(=O)c3ccccc3C2=O)cc1
inactive: [6] 99 % of control | [7] 106 % of control | [8] 108 % of control

COc1ccccc1N1C(=S)N(c2cccc(Cl)c2Cl)C(=O)C(N=Nc2cccc(Cl)c2Cl)C1O (stereo not drawn)
inactive: dose: 100.0 mg/kg/injection, schedule: Q04DX003 (ip), vehicle: Klucel (hydroxypropylcellulose) (HPC) 104 % of control | dose: 200.0 mg/kg/injection, schedule: Q04DX003 (ip), vehicle: Klucel (hydroxypropylcellulose) (HPC) 104 % of control | dose: 400.0 mg/kg/injection, schedule: Q04DX003 (ip), vehicle: Klucel (hydroxypropylcellulose) (HPC) 98 % of control

Clc1ccc(OCCBr)cc1
inactive: dose: 50.0 mg/kg/injection, schedule: Q04DX003 (ip), vehicle: saline with Tween-80 105 % of control | [9] 101 % of control | [10] 105 % of control | [11] 99 % of control

COc1ccc(/C=C/C(=O)c2ccc(OC)c(OC)c2)cc1OC
inactive: [9] 90 % of control | [10] 95 % of control | [11] 95 % of control

COc1ccc(C(=O)C2C(=O)C(=O)OC2C2OC(=O)C(=O)C2C(=O)c2ccc(OC)cc2)cc1 (stereo not drawn)
inactive: dose: 30.0 mg/kg/injection, schedule: Q01DX005 (ip), vehicle: saline 100 % of control | dose: 60.0 mg/kg/injection, schedule: Q01DX005 (ip), vehicle: saline 94 % of control and 95 % of control | dose: 120.0 mg/kg/injection, schedule: Q01DX005 (ip), vehicle: saline 93 % of control

NC1=C(O)C(=O)C(/C=C/c2ccccc2)O1 (stereo not drawn)
inactive: [6] 90 % of control | [7] 90 % of control | [8] 87 % of control

CS(=O)(=O)Nc1ccc(NC(=O)c2c3ccccc3nc3ccccc23)cc1
inactive: dose: 12.5 mg/kg/injection, schedule: Q01DX005 (ip), vehicle: saline with Tween-80 103 % of control | dose: 25.0 mg/kg/injection, schedule: Q01DX005 (ip), vehicle: saline with Tween-80 99 % of control | dose: 50.0 mg/kg/injection, schedule: Q01DX005 (ip), vehicle: saline with Tween-80 109 % of control and 110 % of control

CN1C(=O)C23CC4=CC=CC(O)C4N2C(=O)C1(CO)SS3 (stereo not drawn)
inactive: dose: 0.62 mg/kg/injection, schedule: Q04DX002 (ip), vehicle: saline with Tween-80 103 % of control | dose: 1.25 mg/kg/injection, schedule: Q04DX002 (ip), vehicle: saline with Tween-80 104 % of control | dose: 2.5 mg/kg/injection, schedule: Q04DX002 (ip), vehicle: saline with Tween-80 119 % of control

O=C(CC1(O)C(=O)Nc2ccccc21)c1cccc2ccccc12 (stereo not drawn)
inactive: [6] 110 % of control | [7] 113 % of control | [8] 103 % of control

COc1cc(Br)c(C(C)(C)C#N)cc1OC
inactive: [12] 101 % of control | [13] 101 % of control | [14] 100 % of control

CN(C)C(=S)S(C)(=O)=O
inactive: dose: 12.5 mg/kg/injection, schedule: Q01DX009 (ip), vehicle: saline 107 % of control | [15] 109 % of control | dose: 50.0 mg/kg/injection, schedule: Q01DX009 (ip), vehicle: saline 103 % of control and 107 % of control

O=C1C=CC(=O)c2c1c(O)c1ccccc1c2Cl
inactive: dose: 6.25 mg/kg/injection, schedule: Q01DX005 (ip), vehicle: saline 102 % of control | dose: 12.5 mg/kg/injection, schedule: Q01DX005 (ip), vehicle: saline 95 % of control | dose: 25.0 mg/kg/injection, schedule: Q01DX005 (ip), vehicle: saline 93 % of control

Cn1c(-c2ccccc2)cc2cc(CN)ccc21
inactive: [16] 100 % of control | [17] 100 % of control

Nc1cccc(C(=O)NCCNC(=O)c2cccc(N)c2O)c1O
inactive: [12] 98 % of control | [13] 97 % of control | [14] 95 % of control

COc1ccc2nc3c(C)c4ccn(Cc5ccc(I)cc5)cc4c(C)c3c2c1
inactive: dose: 13.5 mg/kg/injection, schedule: Q04DX002 (ip), vehicle: saline with Tween-80 116 % of control | dose: 27.0 mg/kg/injection, schedule: Q04DX002 (ip), vehicle: saline with Tween-80 113 % of control | dose: 54.0 mg/kg/injection, schedule: Q04DX002 (ip), vehicle: saline with Tween-80 122 % of control | dose: 108.0 mg/kg/injection, schedule: Q04DX002 (ip), vehicle: saline with Tween-80 105 % of control

C1CC2CCC(N3CCCC3)C(C1)C21OCCO1 (stereo not drawn)
inactive: [6] 93 % of control | [7] 92 % of control

[N-]=[N+]=NC(c1ccccc1)n1nnnc1-c1ccccc1 (stereo not drawn)
inactive: dose: 100.0 mg/kg/injection, schedule: Q01DX001 (ip), vehicle: Klucel (hydroxypropylcellulose) (HPC) 101 % of control and 88 % of control | dose: 200.0 mg/kg/injection, schedule: Q01DX001 (ip), vehicle: Klucel (hydroxypropylcellulose) (HPC) 102 % of control and 95 % of control | dose: 400.0 mg/kg/injection, schedule: Q01DX001 (ip), vehicle: Klucel (hydroxypropylcellulose) (HPC) 98 % of control and 120 % of control

[C-]#[O+].[C-]#[O+].[C-]#[O+].[CH3][Sn]([c]1ccccc1)[c]1ccccc1.[W].[c-]1[c-][c-][cH-][c-]1
inactive: [1] 103 % of control | [2] 110 % of control | [3] 110 % of control

C=CCN(CC=C)C(=O)Nc1cc(OC)ccc1OC
inactive: [6] 97 % of control | [7] 97 % of control | [8] 103 % of control

CC1(C)CC(=O)C(CC(=O)c2ccccc2)=C(NN=C(N)N)C1
inactive: [16] 101 % of control | [17] 100 % of control | dose: 200.0 mg/kg/injection, schedule: Q01DX009 (ip), vehicle: Klucel (hydroxypropylcellulose) (HPC) 91 % of control

COC(=O)CSSCc1ccccc1
inactive: dose: 50.0 mg/kg/injection, schedule: Q01DX005 (ip), vehicle: suspension in saline 100 % of control | dose: 100.0 mg/kg/injection, schedule: Q01DX005 (ip), vehicle: suspension in saline 107 % of control | dose: 200.0 mg/kg/injection, schedule: Q01DX005 (ip), vehicle: suspension in saline 107 % of control

COP(=O)(OC)C1(Nc2ccccc2)C2CC3CC(C2)CC1C3 (stereo not drawn)
inactive: dose: 100.0 mg/kg/injection, schedule: Q01DX001 (ip), vehicle: saline with Tween-80 105 % of control | dose: 200.0 mg/kg/injection, schedule: Q01DX001 (ip), vehicle: saline with Tween-80 110 % of control | dose: 400.0 mg/kg/injection, schedule: Q01DX001 (ip), vehicle: saline with Tween-80 102 % of control

O=C1C=CC(=O)N1C1CCCCC1
inactive: [4] 97 % of control | [5] 100 % of control | dose: 25.0 mg/kg/injection, schedule: Q01DX009 (ip), vehicle: Klucel (hydroxypropylcellulose) (HPC) 97 % of control

Oc1ccc(C2COc3c(ccc(O)c3O)C2)cc1 (stereo not drawn)
inactive: [6] 98 % of control | [7] 100 % of control | [8] 101 % of control

CCn1c(O)c(N=NC(=S)SCc2ccccc2)c2ccccc21
inactive: dose: 1.56 mg/kg/injection, schedule: Q01DX009 (ip), vehicle: suspension in saline 97 % of control | dose: 3.12 mg/kg/injection, schedule: Q01DX009 (ip), vehicle: suspension in saline 101 % of control | dose: 6.25 mg/kg/injection, schedule: Q01DX009 (ip), vehicle: suspension in saline 87 % of control and 97 % of control | [15] 94 % of control
